Results as given in patent publication US20250360167A1 (Keryx Biopharmaceuticals, Inc., priority 2013, published 2025).

Columns and labels:
serum bicarbonate = test: Phase 3 trial (Example 1): serum bicarbonate concentration; format: in vivo, human; conditions: for Serum Bicarbonate Concentration, Mean / Serum Bicarbonate Concentration, Median / Serum Bicarbonate Concentration, LS Mean / Serum Bicarbonate Concentration, Change from Baseline, Mean / Serum Bicarbonate Concentration, Change from Baseline, Median / Serum Bicarbonate Concentration, Treatment Differences, LS Mean (KRX-0502) − LS Mean (control), (SE): Table 18; for Serum Bicarbonate Concentration, LS Mean: ANCOVA
Procedure: Serum bicarbonate was performed at a local laboratory and was done at the Randomization Visit (Visit 4); at Visits 11 (Week 12), 14 (Week 24), 17 (Week 36), 20 (Week 48) and 21 (Week 52) during the Safety Assessment Period; and at Visit 25 (Week 56) of the Efficacy Assessment Period.
• 1. Change in serum calcium concentration at Weeks 12, 24, 36, 48, and 52 as compared to baseline (Visit 4). This variable will be analyzed using LOCF methodology. ANCOVA will be employed. The model will include treatment (fixed effect), and baseline (covariate). • 2. Change in ferritin, and TSAT at Weeks 12, 24, 36 and 48 as compared to baseline (Visit 4). This variable will be analyzed using LOCF methodology. ANCOVA will be employed. The model will include treatment (fixed effect), and baseline (covariate). • 3. Change in serum iron and TIBC at Weeks 12, 24, 36, 48, and 52 as compared to baseline (Visit 4). This variable will be analyzed using LOCF methodology. ANCOVA will be employed. The model will include treatment (fixed effect), and baseline (covariate). • 4. Change in Ca x P product at Weeks 12, 24, 36, 48, and 52 as compared to baseline (Visit 4). This variable will be analyzed using LOCF methodology. ANCOVA will be employed. The model will include treatment (fixed effect), and baseline (covariate). • 5. Change in iPTH at Weeks 12, 36, 52, and 56 as compared to baseline (Visit 4). This variable will be analyzed using LOCF methodology. ANCOVA will be employed. The model will include treatment (fixed effect), and baseline (covariate). • 6. Change in serum […], vitamin A, vitamin B-12, vitamin E, vitamin K and folic acid at Weeks 12, 36, and 52 as compared to baseline (Visit 4). This variable will be analyzed using LOCF methodology. ANCOVA will be employed. The model will include treatment (fixed effect), and baseline (covariate). • 7. Change in serum bicarbonate concentration at Weeks 12, 36, and 52 as compared to baseline (Visit 4). This variable will be analyzed using LOCF methodology. ANCOVA will be employed. The model will include treatment (fixed effect), and baseline (covariate). • 8. Change in IV iron intake at Weeks 12, 24, 36, 48, and 52 as compared to baseline (Visit 4). This variable will be analyzed using LOCF methodology. ANCOVA will be employed. The model will include treatment (fixed effect), and baseline (covariate). • 9. Change in the use of EPO (ESA) administered at Weeks 12, 24, 36, 48, and 52 as compared to baseline (Visit 4). This variable will be analyzed using LOCF methodology. ANCOVA will be employed. The model will include treatment (fixed effect), and baseline (covariate). • 10. Change in the use of Vitamin D supplementation (and its analogs) and Sensipar (cinacalcet) at Weeks 12, 24, 36, 48, and 52 as compared to baseline (Visit 4). This variable will be analyzed using LOCF methodology. ANCOVA will be employed. The model will include treatment (fixed effect), and baseline (covariate). • 11. Change in LDL, HDL, and triglycerides at Weeks 12, 36, and 52 as compared to baseline (Visit 4). This variable will be analyzed using LOCF methodology. ANCOVA will be employed. The model will include treatment (fixed effect), and baseline (covariate).

[1] = Phase 3 trial (Example 1): hospitalizations, cardiac severe adverse events; format: in vivo, human
Procedure: Safety was assessed by recording and monitoring adverse events, concomitant medication use, physical examinations, and sequential blood by treatment assignment. Rates of adverse events were summarized overall and by organ system class, preferred term, severity, and suspected relationship to study drug by treatment assignment. AEs were summarized for the Washout Period, Safety Assessment Period, and Efficacy Assessment Period separately by treatment assignment. The changes from baseline in laboratory parameters over time were summarized by treatment assignment.

[2] = Day 0 Baseline, Safety Assessment Period
[3] = Active Control n = 149, Ferric Citrate n = 289
[4] = Ferric Citrate vs Active Control
[5] = percent of patients, Ferric Citrate N = 289, Active Control N = 149

**Q.** What does the source list for “iron (+3), x (1, 2, 3-propanetricarboxylic acid, 2-hydroxy-), y (H2O) [KRX-0502]”?
**A.** Serum Bicarbonate Concentration, Mean (serum bicarbonate; [2]): 23.92; Serum Bicarbonate Concentration, Median (serum bicarbonate; [2]): 24.00; Serum Bicarbonate Concentration, LS Mean (serum bicarbonate; Week 12): 25.60; Serum Bicarbonate Concentration, Change from Baseline, Mean (serum bicarbonate; Week 12): 1.57; Serum Bicarbonate Concentration, Change from Baseline, Median (serum bicarbonate; Week 12): 1.05; Serum Bicarbonate Concentration, Mean (serum bicarbonate; Week 12): 25.63; Serum Bicarbonate Concentration, Median (serum bicarbonate; Week 12): 25.00; Serum Bicarbonate Concentration, Treatment Differences, LS Mean (KRX-0502) − LS Mean (control), (SE) (serum bicarbonate; Week 12): −0.72 (0.37); Serum Bicarbonate Concentration, LS Mean (serum bicarbonate; Week 24): 25.35; Serum Bicarbonate Concentration, Change from Baseline, Mean (serum bicarbonate; Week 24): 1.48; Serum Bicarbonate Concentration, Change from Baseline, Median (serum bicarbonate; Week 24): 1.00; Serum Bicarbonate Concentration, Mean (serum bicarbonate; Week 24): 25.39; Serum Bicarbonate Concentration, Median (serum bicarbonate; Week 24): 25.45; Serum Bicarbonate Concentration, Treatment Differences, LS Mean (KRX-0502) − LS Mean (control), (SE) (serum bicarbonate; Week 24): −0.39 (0.38); Serum Bicarbonate Concentration, LS Mean (serum bicarbonate; Week 36): 25.22; Serum Bicarbonate Concentration, Change from Baseline, Mean (serum bicarbonate; Week 36): 1.36; Serum Bicarbonate Concentration, Change from Baseline, Median (serum bicarbonate; Week 36): 1.00; Serum Bicarbonate Concentration, Mean (serum bicarbonate; Week 36): 25.27; Serum Bicarbonate Concentration, Median (serum bicarbonate; Week 36): 25.00; Serum Bicarbonate Concentration, Treatment Differences, LS Mean (KRX-0502) − LS Mean (control), (SE) (serum bicarbonate; Week 36): −0.15 (0.34); Serum Bicarbonate Concentration, LS Mean (serum bicarbonate; Week 48): 24.78; Serum Bicarbonate Concentration, Change from Baseline, Mean (serum bicarbonate; Week 48): 0.91; Serum Bicarbonate Concentration, Change from Baseline, Median (serum bicarbonate; Week 48): 1.00; Serum Bicarbonate Concentration, Mean (serum bicarbonate; Week 48): 24.81; Serum Bicarbonate Concentration, Median (serum bicarbonate; Week 48): 25.00; Serum Bicarbonate Concentration, Treatment Differences, LS Mean (KRX-0502) − LS Mean (control), (SE) (serum bicarbonate; Week 48): −0.52 (0.36); Serum Bicarbonate Concentration, LS Mean (serum bicarbonate; Week 52): 24.60; Serum Bicarbonate Concentration, Change from Baseline, Mean (serum bicarbonate; Week 52): 0.71; Serum Bicarbonate Concentration, Change from Baseline, Median (serum bicarbonate; Week 52): 1.00; Serum Bicarbonate Concentration, Mean (serum bicarbonate; Week 52): 24.63; Serum Bicarbonate Concentration, Median (serum bicarbonate; Week 52): 25.00; Serum Bicarbonate Concentration, Treatment Differences, LS Mean (KRX-0502) − LS Mean (control), (SE) (serum bicarbonate; Week 52): −0.70 (0.44); mean increase in serum bicarbonate concentration (serum bicarbonate; administered for a period of 52 weeks, stated as embodiment): 0.71 mEq/L; Average Hospitalizations per Subject [1, 3]: 0.63; Subjects with One or More Hospitalizations, % of Study Subjects [1, 3]: 34.6%; Total Hospitalizations [1, 3]: 181; Average Hospitalizations per Subject, % Improvement [1, 4]: 24.1%; Average Hospitalizations per Subject, Difference [1, 4]: −0.20; Subjects with One or More Hospitalizations, Relative % Difference ([1]; Ferric Citrate vs Active Control, p = 0.024): −24.2%; hospitalizations related to cardiac severe adverse events ([1]; as compared to Active Control): able to reduce hospitalizations related to cardiac severe adverse events; Subjects with One or More Hospitalizations ([1]; number of subjects, Active Control n = 149, Ferric Citrate n = 289): 100; Cardiac Disorders, % [1, 5]: 4.8%; Gastrointestinal Disorders, % [1, 5]: 6.2%; Infections, % [1, 5]: 12.1%
